Experimental data taken from the supplement of paper PMC10307832.

Legend:
Experiment in all cases: relative viability (nuclei count vs DMSO), 5 days (fraction); higher = more cells survive
Salubrinal + Dasatinib = compound: O=C(/C=C/c1ccccc1)NC(NC(=S)Nc1cccc2cccnc12)C(Cl)(Cl)Cl [Salubrinal] + Cc1nc(Nc2ncc(C(=O)Nc3c(C)cccc3Cl)s2)cc(N2CCN(CCO)CC2)n1 [Dasatinib] (partner 0.075 µM)
Outline: (§1)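 Five library-drug doses in √10 steps were combined with a fixed anchor-drug dose, or a single drug was given alone, by pin tool to lung cancer cell lines in 1536-well plates the day after seeding. Nuclei were stained and counted after 5 days. Relative viability is the nuclei count in treated wells over that in vehicle wells, taken as the median of duplicate plates.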

[1] = compound: Cc1ccc2nc(NCCN)c3ncc(C)n3c2c1 + Nc1ncn([C@H]2C[C@H](O)[C@@H](CO)O2)c(=O)n1 [Decitabine] (partner 2 µM)
Outline: as §1

Salubrinal + Luminespib = compound: O=C(/C=C/c1ccccc1)NC(NC(=S)Nc1cccc2cccnc12)C(Cl)(Cl)Cl [Salubrinal] + CCNC(=O)c1noc(-c2cc(C(C)C)c(O)cc2O)c1-c1ccc(CN2CCOCC2)cc1 [Luminespib] (partner 0.01 µM)
Outline: as §1

[2] = compound: Cc1ccc2nc(NCCN)c3ncc(C)n3c2c1 + CC(C)C[C@H](NC(=O)[C@H](Cc1ccccc1)NC(=O)c1cnccn1)B(O)O [Bortezomib] (partner 0.002 µM)
Outline: as §1

| Cell Line | relative viability (Salubrinal + Dasatinib; first compound 0.08 µM) | relative viability (Salubrinal + Dasatinib; first compound 0.253 µM) | relative viability (Salubrinal + Dasatinib; first compound 0.8 µM) | relative viability (Salubrinal + Dasatinib; first compound 2.53 µM) | relative viability (Salubrinal + Dasatinib; first compound 8 µM) | relative viability ([1]; first compound 0.04 µM) | relative viability ([1]; first compound 0.1265 µM) | relative viability ([1]; first compound 0.4 µM) | relative viability ([1]; first compound 1.265 µM) | relative viability ([1]; first compound 4 µM) | relative viability (Salubrinal + Luminespib; first compound 0.08 µM) | relative viability (Salubrinal + Luminespib; first compound 0.253 µM) | relative viability (Salubrinal + Luminespib; first compound 0.8 µM) | relative viability (Salubrinal + Luminespib; first compound 2.53 µM) | relative viability (Salubrinal + Luminespib; first compound 8 µM) | relative viability ([2]; first compound 0.04 µM) | relative viability ([2]; first compound 0.1265 µM) | relative viability ([2]; first compound 0.4 µM) | relative viability ([2]; first compound 1.265 µM) | relative viability ([2]; first compound 4 µM) |
| --- | --- | --- | --- | --- | --- | --- | --- | --- | --- | --- | --- | --- | --- | --- | --- | --- | --- | --- | --- | --- |
| NCI-H650 | 0.425 | 0.462 | 0.462 | 0.474 | 0.413 | 0.332 | 0.326 | 0.31 | 0.269 | 0.331 | 0.753 | 0.791 | 0.845 | 0.786 | 0.767 | 0.863 | 0.673 | 0.73 | 0.859 | 0.621 |
| NCI-H661 | 0.995 | 0.921 | 0.928 | 0.871 | 0.86 | 0.559 | 0.562 | 0.56 | 0.513 | 0.552 | 0.912 | 0.763 | 0.919 | 0.905 | 0.941 | 0.909 | 0.868 | 0.595 | – | 0.651 |
| NCI-H727 | 0.311 | 0.38 | 0.341 | 0.409 | 0.375 | 0.976 | – | 0.995 | 0.84 | 0.797 | 0.407 | 0.337 | 0.337 | 0.312 | 0.274 | 0.822 | 0.806 | 0.683 | 0.732 | 0.639 |
| NCI-H838 | 0.304 | 0.288 | 0.318 | 0.262 | 0.266 | 0.494 | 0.461 | 0.428 | 0.44 | 0.427 | 0.264 | 0.258 | 0.285 | 0.341 | 0.272 | 0.878 | 0.9 | 0.615 | 0.631 | 0.739 |
| NCI-H1355 | 0.764 | 0.569 | 0.806 | 0.685 | 0.603 | 0.398 | 0.364 | 0.345 | 0.356 | 0.367 | 0.801 | 0.744 | 0.555 | 0.72 | 0.705 | 1.25 | 1.19 | 1.02 | 1.14 | 1.06 |
| NCI-H1437 | 0.406 | 0.42 | 0.487 | 0.507 | 0.243 | 0.581 | 0.526 | 0.596 | 0.495 | 0.498 | 1.21 | 0.999 | 1.19 | 1.08 | 1.12 | 0.628 | 0.467 | 0.474 | 0.539 | 0.557 |
| NCI-H1650 | 0.366 | 0.35 | 0.321 | 0.357 | 0.294 | 0.365 | 0.392 | 0.374 | 0.393 | 0.38 | 0.212 | 0.213 | 0.194 | 0.19 | 0.216 | 0.203 | 0.19 | 0.206 | 0.182 | 0.202 |
| NCI-H1651 | 0.487 | 0.259 | 0.452 | 0.393 | 0.35 | 0.628 | 0.664 | 0.69 | 0.637 | 0.518 | 0.99 | 0.897 | 0.962 | 0.743 | 0.827 | 0.966 | 0.954 | 1.07 | 0.972 | 0.676 |
